{
  "source": "patent US20110129917A1",
  "about": "“CELL ISOLATION METHOD” (priority 2007, published 2011)",
  "tested_on": "microorganisms in soil",
  "assay": "effect of cell enlargers upon microorganisms in rice paddy soil, observed under a fluorescent microscope after CFDA-AM staining",
  "format": "cell-based",
  "details": "three cell enlargers added together: nalidixic acid 80 μg/g of soil, pipemidic acid 40 μg/g, piromidic acid 40 μg/g; anaerobic, 30° C., 24 hours; comparison without enlargers showed only round or oval cells",
  "procedure": "As a laboratory model of rice paddy soil where denitrification is active, a 10 mL vial bottle was filled with slightly less than 10 mL of soil (rice paddy soil from Tanashi Farm of the University of Tokyo), a selective substrate of denitrificans (sodium succinate, approximately 5 g/L) and sodium nitrate (approximately 5 g/L) and the gas phase was completely substituted with argon-acetylene. Culture was then carried out anaerobically at 30° C. […] A fluorescent dye CFDA-AM (final concentration 50 μM) was added to the cultured product and the product was observed under a fluorescent microscope (excited in blue, irradiated with blue light) (FIG. 3(b)). In combination, as a comparative example, the fluorescent dye was added and observation was carried out under a microscope with no cell enlargers added (FIG. 3(a)).",
  "data": [
    {"molecule": "CCn1cc(C(=O)O)c(=O)c2cnc(N3CCNCC3)nc21", "note": "[pipemidic acid]", "values": [
      {"measurement": "effect of cell enlargers upon microorganisms in soil (cell shape and size under the microscope)", "value": "elongated and larger cells were also observable"}
    ]},
    {"molecule": "CCn1cc(C(=O)O)c(=O)c2cnc(N3CCCC3)nc21", "note": "[piromidic acid]", "values": [
      {"measurement": "effect of cell enlargers upon microorganisms in soil (cell shape and size under the microscope)", "value": "elongated and larger cells were also observable"}
    ]}
  ]
}
